Results reported in patent US20250290074A1, “TARGETED TREATMENT OF SPLICEOPATHY-INDUCED NEUROLOGICAL DISORDERS” (Auttx, LLC, priority 2022, published 2025).
Strand notation (5' to 3'): a small letter for the sugar, then the base; units joined by * are phosphorothioate-linked, units joined directly phosphodiester-linked; [ ] holds rarer units or linkages, { } end groups; capitals alone tell only the bases. e = 2'-O-(2-methoxyethyl) (MOE); [5mC] = 5-methylcytosine

How the values were obtained:
[1] = test system: human hnRNP L (hsHNRNP L) mRNA; experiment: 5-point dose response (DRC) of ASOs, hnRNP L mRNA by branched DNA assay in BE(2)-M17 cells; assay type: cell-based; details: 24 h; for max. upregulation [%] (MV normalized hsHNRNP L/hsGAPDH): Lipofectamine3000, highest 120 nM, four 4-fold dilutions, bDNA, negative controls set to 100%; for EC50: hsHNRNP L mRNA upregulation, XLfit
Description: Data were generated in biological quadruplicates. […] No significant decrease in hsGAPDH mRNA levels was observed.
Details and data are shown in Table 9A-9B, FIG. 24, and FIG. 25A-25E. In some cases, there was dose dependent hsHNRNP L on-target mRNA upregulation to varying degrees when cells were transfected with ASO compounds of interest.

[2] = test system: hsHNRNP L mRNA; experiment: Time-course experiment, ASOs at 30 nM, hnRNP L mRNA by bDNA in BE(2)-M17 cells; assay type: cell-based, Homo sapiens; details: 30 nM ASO, mock controls set to 100%, incubations 24 h, 48 h, 72 h, time point not given
Experimental: Lipofectamine3000 (LF3000) was again used as the transfection agent. The transfection mixture was prepared identically on three plates. […] In this case, no outliers were removed. Data were generated in biological quadruplicates.
FIG. 26 includes a comparison of results from this study next to results from Example 7. Observing the results after 24 h incubation, similar data from the analysis in Example 7 were reproduced here.

Row | Substance | max. upregulation [%] (MV normalized hsHNRNP L/hsGAPDH) [1] | EC50 [1] | MV normalized hsHNRNP L/hsGAPDH [2]
1 | 5UTR-V1-1: ASO ATGGCGGCGCAGAACCCGCCTC (SEQ ID NO: 47), fully 2′-MOE, 5′-methyl C, phosphorothioate; hnRNP L 5′ UTR (antisense eA*eT*eG*eG*e[5mC]*eG*eG*e[5mC]*eG*e[5mC]*eA*eG*eA*eA*e[5mC]*e[5mC]*e[5mC]*eG*e[5mC]*e[5mC]*eT*e[5mC]; listed as Homo sapiens) | 11.4% | – | –
2 | 5UTR-V1-2: ASO TCCGCGACATGGCGGCGCAGAA (SEQ ID NO: 48), fully 2′-MOE, 5′-methyl C, phosphorothioate; hnRNP L 5′ UTR (antisense eT*e[5mC]*e[5mC]*eG*e[5mC]*eG*eA*e[5mC]*eA*eT*eG*eG*e[5mC]*eG*eG*e[5mC]*eG*e[5mC]*eA*eG*eA*eA; listed as Homo sapiens) | 16.2% | – | –
3 | 5UTR-V1-3: ASO GCAGCAGCCTCCGCGACATGGC (SEQ ID NO: 49), fully 2′-MOE, 5′-methyl C, phosphorothioate; hnRNP L 5′ UTR (antisense eG*e[5mC]*eA*eG*e[5mC]*eA*eG*e[5mC]*e[5mC]*eT*e[5mC]*e[5mC]*eG*e[5mC]*eG*eA*e[5mC]*eA*eT*eG*eG*e[5mC]; listed as Homo sapiens) | 22.4% | – | –
4 | Skip-6A-1: ASO GTACACATCCGCTACAATTTTT (SEQ ID NO: 50), fully 2′-MOE, 5′-methyl C, phosphorothioate; upstream intron of hnRNP L exon 6A (antisense eG*eT*eA*e[5mC]*eA*e[5mC]*eA*eT*e[5mC]*e[5mC]*eG*e[5mC]*eT*eA*e[5mC]*eA*eA*eT*eT*eT*eT*eT; listed as Homo sapiens) | 9.1% | 15.2 nM | 13.0%
5 | Skip-6A-2: ASO AGTCACGGTACACATCCGCTAC (SEQ ID NO: 51), fully 2′-MOE, 5′-methyl C, phosphorothioate; upstream intron (antisense eA*eG*eT*e[5mC]*eA*e[5mC]*eG*eG*eT*eA*e[5mC]*eA*e[5mC]*eA*eT*e[5mC]*e[5mC]*eG*e[5mC]*eT*eA*e[5mC]; listed as Homo sapiens) | 7.2% | 18.5 nM | 1.8%
6 | Skip-6A-3: ASO TAAATACAAGTCACGGTACACA (SEQ ID NO: 52), fully 2′-MOE, 5′-methyl C, phosphorothioate; upstream intron (antisense eT*eA*eA*eA*eT*eA*e[5mC]*eA*eA*eG*eT*e[5mC]*eA*e[5mC]*eG*eG*eT*eA*e[5mC]*eA*e[5mC]*eA; listed as Homo sapiens) | 22.1% | 9.29 nM | 29.0%
7 | Skip-6A-4: ASO TACAGTCATAAATACAAGTCAC (SEQ ID NO: 53), fully 2′-MOE, 5′-methyl C, phosphorothioate; upstream intron (antisense eT*eA*e[5mC]*eA*eG*eT*e[5mC]*eA*eT*eA*eA*eA*eT*eA*e[5mC]*eA*eA*eG*eT*e[5mC]*eA*e[5mC]; listed as Homo sapiens) | 24.0% | 18.9 nM | 26.9%
8 | Skip-6A-5: ASO ATGGTTTTACAGTCATAAATAC (SEQ ID NO: 54), fully 2′-MOE, 5′-methyl C, phosphorothioate; upstream intron (antisense eA*eT*eG*eG*eT*eT*eT*eT*eA*e[5mC]*eA*eG*eT*e[5mC]*eA*eT*eA*eA*eA*eT*eA*e[5mC]; listed as Homo sapiens) | 41.6% | 7.25 nM | 67.3%
9 | Skip-6A-6: ASO TGCATCACATGGTTTTACAGTC (SEQ ID NO: 55), fully 2′-MOE, 5′-methyl C, phosphorothioate; upstream intron (antisense eT*eG*e[5mC]*eA*eT*e[5mC]*eA*e[5mC]*eA*eT*eG*eG*eT*eT*eT*eT*eA*e[5mC]*eA*eG*eT*e[5mC]; listed as Homo sapiens) | 65.1% | 6.23 nM | 81.7%
10 | Skip-6A-7: ASO GCGACCCTGCATCACATGGTTT (SEQ ID NO: 56), fully 2′-MOE, 5′-methyl C, phosphorothioate; upstream intron/exon (antisense eG*e[5mC]*eG*eA*e[5mC]*e[5mC]*e[5mC]*eT*eG*e[5mC]*eA*eT*e[5mC]*eA*e[5mC]*eA*eT*eG*eG*eT*eT*eT; listed as Homo sapiens) | 51.2% | 8.91 nM | 59.3%
11 | Skip-6A-8: ASO ATACACTGCGACCCTGCATCAC (SEQ ID NO: 57), fully 2′-MOE, 5′-methyl C, phosphorothioate; upstream intron/exon (antisense eA*eT*eA*e[5mC]*eA*e[5mC]*eT*eG*e[5mC]*eG*eA*e[5mC]*e[5mC]*e[5mC]*eT*eG*e[5mC]*eA*eT*e[5mC]*eA*e[5mC]; listed as Homo sapiens) | 18.0% | 8.54 nM | 26.0%
12 | Skip-6A-9: ASO TCAAACATACACTGCGACCCTG (SEQ ID NO: 58), fully 2′-MOE, 5′-methyl C, phosphorothioate; upstream intron/exon (antisense eT*e[5mC]*eA*eA*eA*e[5mC]*eA*eT*eA*e[5mC]*eA*e[5mC]*eT*eG*e[5mC]*eG*eA*e[5mC]*e[5mC]*e[5mC]*eT*eG; listed as Homo sapiens) | 40.2% | 7.15 nM | 31.3%
13 | Skip-6A-10: ASO GTCCCATCAAACATACACTGCG (SEQ ID NO: 59), fully 2′-MOE, 5′-methyl C, phosphorothioate; exon 6A (antisense eG*eT*e[5mC]*e[5mC]*e[5mC]*eA*eT*e[5mC]*eA*eA*eA*e[5mC]*eA*eT*eA*e[5mC]*eA*e[5mC]*eT*eG*e[5mC]*eG; listed as Homo sapiens) | 49.2% | 5.79 nM | 42.1%
14 | Skip-6A-11: ASO ATGGCGTCCCATCAAACATACA (SEQ ID NO: 60), fully 2′-MOE, 5′-methyl C, phosphorothioate; exon 6A (antisense eA*eT*eG*eG*e[5mC]*eG*eT*e[5mC]*e[5mC]*e[5mC]*eA*eT*e[5mC]*eA*eA*eA*e[5mC]*eA*eT*eA*e[5mC]*eA; listed as Homo sapiens) | 47.8% | 7.93 nM | 38.3%
15 | Skip-6A-12: ASO TGAAAGATGGCGTCCCATCAAA (SEQ ID NO: 61), fully 2′-MOE, 5′-methyl C, phosphorothioate; exon 6A (antisense eT*eG*eA*eA*eA*eG*eA*eT*eG*eG*e[5mC]*eG*eT*e[5mC]*e[5mC]*e[5mC]*eA*eT*e[5mC]*eA*eA*eA; listed as Homo sapiens) | 36.6% | 16.7 nM | 14.5%
16 | Skip-6A-13: ASO CAGTTCTGAAAGATGGCGTCCC (SEQ ID NO: 62), fully 2′-MOE, 5′-methyl C, phosphorothioate; exon 6A (antisense e[5mC]*eA*eG*eT*eT*e[5mC]*eT*eG*eA*eA*eA*eG*eA*eT*eG*eG*e[5mC]*eG*eT*e[5mC]*e[5mC]*e[5mC]; listed as Homo sapiens) | 53.3% | 3.97 nM | 56.0%
17 | Skip-6A-14: ASO TTAGCACAGTTCTGAAAGATGG (SEQ ID NO: 63), fully 2′-MOE, 5′-methyl C, phosphorothioate; exon 6A (antisense eT*eT*eA*eG*e[5mC]*eA*e[5mC]*eA*eG*eT*eT*e[5mC]*eT*eG*eA*eA*eA*eG*eA*eT*eG*eG; listed as Homo sapiens) | 52.3% | 6.41 nM | 55.8%
18 | Skip-6A-15: ASO AGTGAGTTAGCACAGTTCTGAA (SEQ ID NO: 64), fully 2′-MOE, 5′-methyl C, phosphorothioate; exon 6A (antisense eA*eG*eT*eG*eA*eG*eT*eT*eA*eG*e[5mC]*eA*e[5mC]*eA*eG*eT*eT*e[5mC]*eT*eG*eA*eA; listed as Homo sapiens) | 55.8% | 7.45 nM | 63.4%
19 | Skip-6A-16: ASO CTTCAACAGTGAGTTAGCACAG (SEQ ID NO: 65), fully 2′-MOE, 5′-methyl C, phosphorothioate; exon 6A (antisense e[5mC]*eT*eT*e[5mC]*eA*eA*e[5mC]*eA*eG*eT*eG*eA*eG*eT*eT*eA*eG*e[5mC]*eA*e[5mC]*eA*eG; listed as Homo sapiens) | 61.6% | 4.93 nM | 53.2%
20 | Skip-6A-17: ASO TGGACGCTTCAACAGTGAGTTA (SEQ ID NO: 66), fully 2′-MOE, 5′-methyl C, phosphorothioate; exon 6A (antisense eT*eG*eG*eA*e[5mC]*eG*e[5mC]*eT*eT*e[5mC]*eA*eA*e[5mC]*eA*eG*eT*eG*eA*eG*eT*eT*eA; listed as Homo sapiens) | 46.9% | 10.6 nM | 64.5%
